These results are taken from patent publication US20060217340A1, “Methods and products for treating hypertension by modulation of TRPC3 channel activity” (University of Vermont and State Agricultural College, priority 2005, published 2006).

One data set has as its system TRPC3. Kind of data set: Western analysis of TRPC3 protein expression in arteries. The class given is cell-based, rat. The method, then:
(§1) Western Analysis. Arterial segments were homogenized in lysis buffer (5 minutes, 4° C.) containing (in mM): 40 CAPS, 1 DL-Dithiothreitol (DTT), 10 EDTA, 15 MgCl2, 115 NaCl, 1 NaOrthovanadate, 1 NaF, 2.5 Urea, and 0.25% deoxychlorate, 10% glycerol, 1% NP-40, 0.2% SDS, and 1:50 mammalian protease inhibitor cocktail (Sigma, St. Louis, Mo., USA). Equal amounts of sample protein were separated on a 10% polyacrylamide gel and transferred to a nitrocellulose membrane. The membranes were exposed to a TRPC3 or TRPC6 polyclonal antibody (anti-rabbit 1:200 dilution, Alomone Labs, Jerusalem, Israel) and a […] (GAPDH) monoclonal antibody (anti-mouse, 1:1000 dilution, Chemicon Labs, Temecula, Calif., USA). Alexa-Fluor 680® goat anti-rabbit (Molecular Probes, Eugene, Oreg., USA) and IRDyeTM800 anti-mouse (Rockland Immunochemicals, Gilbertsville, Pa., USA) were used to fluorescently label the TRPC3 and GAPDH antibodies respectively. The density of signals specific for the TRPC3 and GAPDH bands in a given lane on a membrane were measured after scanning the membrane with an Odyssey® infared imaging system (Li-COR Biosciences, Lincoln, Nebr., USA). Quantified amounts were normalized to a total protein amount lane on the polyacrylamide gel.
Oligodeoxynucleotide Sequences and Reverse Permeabilization. TRPC6 sense and antisense oligodeoxynucleotides (ODN's) were designed as previously described (Welsh et al 2002 Circ Res 90, 248-250) and were as follows: sense, 5′-[…]-3′ (SEQ ID: 3) and 5′-GCACACGCAGCCTCTTCAC-3′ (SEQ ID: 4) antisense, 5′-[…]-3′ (SEQ ID: 5) and 5′-[…]-3′ (SEQ ID: 6). TRPC3 sense and antisense ODN's were designed based on the rat TRPC3 gene (Ohki et al 2000 J Biol Chem 275: 39055-39060) and are as follows: sense, 5′-[…]-3′ (SEQ ID: 7) and 5′-[…]-3′ (SEQ ID: 8); anti-sense, 5′-[…]-3′ (SEQ ID: 9) and 5′-[…]-3′ (SEQ ID: 10). The last five bases on the 5′ and 3′ end were phosphorothioated in order to limit ODN degradation. […]

Data set [1] concerns glyceraldehyde dehydrogenase (GAPDH). In words: Western analysis of GAPDH protein expression in cerebral artery. The format is cell-based, rat. The note with it: 3 days organ culture. The method, then: as §1
Oligodeoxynucleotide Sequences and Reverse Permeabilization. […]

Regarding “5′-GAGAACCATGAACTGGAATA-3′ (SEQ ID: 9) and 5′-ACGACCAACACGACCAGACA-3′ (SEQ ID: 10) (phosphorothioate ends, further chemistry not given here) [TRPC3 antisense, antisense ODNs based on the rat TRPC3 gene; last five bases on the 5′ and 3′ end phosphorothioated]”, in the data set with TRPC3 (TRPC3 antisense compared with sense treated arteries), the “TRPC3 expression reduced (Western blots of arterial lysates)” value is reported as about 60%. Besides, the “TRPC3 to GAPDH ratio less in antisense compared to sense treated samples” value with TRPC3 (after 3 days of organ culture, n=4 each) was determined as 42.5±11.4%. Moreover, in data set [1], the “effect on the expression of GAPDH” value is given as “no effect”.
